{"source": "patent US20070031534A1", "about": "“Pet food for reducing food allergy reactions” (priority 2004, published 2007)", "system": "dogs subject to food allergies", "test": "Owner-marked itching scores of dogs subject to food allergies fed with the dog food", "format": "in vivo", "conditions": "case No.1, before feeding with the dog food", "protocol": "A dog food (dog food for food allergy) composed of raw materials as listed in Table 3 and Table 4 below was prepared according to the above Example 1. Dogs subject to food allergies were fed with this dog food and then the itching scores of these dogs were determined.\nThe following 2 cases are described in detail. (a) Detailed description of case No.1 (i) Changes (−1) in itching scores"}
{"smiles": "C[C@]12C=CC(=O)C=C1CC[C@@H]1[C@@H]2[C@@H](O)C[C@@]2(C)[C@H]1CC[C@]2(O)C(=O)CO", "note": "[predonine]", "values": [{"measurement": "itching on administration of steroid drug", "result": "further suppressed"}]}
